Laboratory results from PubChem BioAssay (NCI).
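Results reflect a 48-hour exposure of cells in 96-well plates to compound at five concentrations. The concentration for full growth arrest is given as TGI.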

tested on: SR leukemia; experiment: NCI anticancer screen, dose series, 48 h

SMILES	TGI
COc1nc2nccnc2c(=O)n1C	> 10 µM
CCOC(=O)NC(Nc1cccc(C(F)(F)F)c1)(C(F)(F)F)C(F)(F)F	> 100 µM
COc1ccc2cc(C(C)C(=O)N3CCOC3=O)ccc2c1 (stereo not given)	> 100 µM

tested on: SW-620 colon; experiment: NCI anticancer screen, dose series, 48 h

SMILES	TGI
CC1=CC(C/C(C)=C/COc2ccc3ccc(=O)oc3c2)OC1=O (stereo not given)	> 100 µM
CN1[C@@H]2C[C@@H](OC(=O)[C@H](CO)c3ccccc3)C[C@H]1[C@@H]1O[C@@H]12	> 100 µM
N#Cc1c(Cl)cc(Cl)n2c1nc1ccccc12	> 45 µM
COc1nc2nccnc2c(=O)n1C	> 10 µM
CCOC(=O)NC(Nc1cccc(C(F)(F)F)c1)(C(F)(F)F)C(F)(F)F	> 100 µM
COc1ccc2cc(C(C)C(=O)N3CCOC3=O)ccc2c1 (stereo not given)	> 100 µM

tested on: T-47D breast; experiment: NCI anticancer screen, dose series, 48 h

SMILES	TGI
CC1=CC(C/C(C)=C/COc2ccc3ccc(=O)oc3c2)OC1=O (stereo not given)	> 100 µM
CN1[C@@H]2C[C@@H](OC(=O)[C@H](CO)c3ccccc3)C[C@H]1[C@@H]1O[C@@H]12	> 100 µM
N#Cc1c(Cl)cc(Cl)n2c1nc1ccccc12	31.8 µM
CC1=C(O)C(=O)C=C2C1=CC=C1[C@@]2(C)CC[C@@]2(C)[C@@H]3C[C@](C)(C(=O)O)CC[C@]3(C)CC[C@]12C	0.0807 µM
COc1nc2nccnc2c(=O)n1C	> 10 µM
CCOC(=O)NC(Nc1cccc(C(F)(F)F)c1)(C(F)(F)F)C(F)(F)F	> 100 µM
COc1ccc2cc(C(C)C(=O)N3CCOC3=O)ccc2c1 (stereo not given)	> 100 µM

tested on: TK-10 renal; experiment: NCI anticancer screen, dose series, 48 h

SMILES	TGI
CC1=CC(C/C(C)=C/COc2ccc3ccc(=O)oc3c2)OC1=O (stereo not given)	> 100 µM
CN1[C@@H]2C[C@@H](OC(=O)[C@H](CO)c3ccccc3)C[C@H]1[C@@H]1O[C@@H]12	> 100 µM
N#Cc1c(Cl)cc(Cl)n2c1nc1ccccc12	18.1 µM
CC1=C(O)C(=O)C=C2C1=CC=C1[C@@]2(C)CC[C@@]2(C)[C@@H]3C[C@](C)(C(=O)O)CC[C@]3(C)CC[C@]12C	0.0804 µM
COc1nc2nccnc2c(=O)n1C	> 10 µM
CCOC(=O)NC(Nc1cccc(C(F)(F)F)c1)(C(F)(F)F)C(F)(F)F	> 100 µM
COc1ccc2cc(C(C)C(=O)N3CCOC3=O)ccc2c1 (stereo not given)	> 100 µM

tested on: U251 CNS; experiment: NCI anticancer screen, dose series, 48 h

SMILES	TGI
CC1=CC(C/C(C)=C/COc2ccc3ccc(=O)oc3c2)OC1=O (stereo not given)	> 100 µM
N#Cc1c(Cl)cc(Cl)n2c1nc1ccccc12	55.5 µM
CC1=C(O)C(=O)C=C2C1=CC=C1[C@@]2(C)CC[C@@]2(C)[C@@H]3C[C@](C)(C(=O)O)CC[C@]3(C)CC[C@]12C	0.139 µM
COc1nc2nccnc2c(=O)n1C	> 10 µM
CCOC(=O)NC(Nc1cccc(C(F)(F)F)c1)(C(F)(F)F)C(F)(F)F	> 100 µM
COc1ccc2cc(C(C)C(=O)N3CCOC3=O)ccc2c1 (stereo not given)	> 100 µM

tested on: UACC-257 melanoma; experiment: NCI anticancer screen, dose series, 48 h

SMILES	TGI
CC1=CC(C/C(C)=C/COc2ccc3ccc(=O)oc3c2)OC1=O (stereo not given)	> 100 µM
CN1[C@@H]2C[C@@H](OC(=O)[C@H](CO)c3ccccc3)C[C@H]1[C@@H]1O[C@@H]12	> 100 µM
N#Cc1c(Cl)cc(Cl)n2c1nc1ccccc12	25.1 µM
CC1=C(O)C(=O)C=C2C1=CC=C1[C@@]2(C)CC[C@@]2(C)[C@@H]3C[C@](C)(C(=O)O)CC[C@]3(C)CC[C@]12C	0.1 µM
COc1nc2nccnc2c(=O)n1C	> 10 µM
CCOC(=O)NC(Nc1cccc(C(F)(F)F)c1)(C(F)(F)F)C(F)(F)F	> 100 µM
COc1ccc2cc(C(C)C(=O)N3CCOC3=O)ccc2c1 (stereo not given)	> 100 µM

tested on: UACC-62 melanoma; experiment: NCI anticancer screen, dose series, 48 h

SMILES	TGI
CC1=CC(C/C(C)=C/COc2ccc3ccc(=O)oc3c2)OC1=O (stereo not given)	> 100 µM
CN1[C@@H]2C[C@@H](OC(=O)[C@H](CO)c3ccccc3)C[C@H]1[C@@H]1O[C@@H]12	> 100 µM
N#Cc1c(Cl)cc(Cl)n2c1nc1ccccc12	29.8 µM
CC1=C(O)C(=O)C=C2C1=CC=C1[C@@]2(C)CC[C@@]2(C)[C@@H]3C[C@](C)(C(=O)O)CC[C@]3(C)CC[C@]12C	0.0669 µM
COc1nc2nccnc2c(=O)n1C	> 10 µM
CCOC(=O)NC(Nc1cccc(C(F)(F)F)c1)(C(F)(F)F)C(F)(F)F	> 100 µM
COc1ccc2cc(C(C)C(=O)N3CCOC3=O)ccc2c1 (stereo not given)	> 100 µM

tested on: UO-31 renal; experiment: NCI anticancer screen, dose series, 48 h

SMILES	TGI
CC1=CC(C/C(C)=C/COc2ccc3ccc(=O)oc3c2)OC1=O (stereo not given)	> 100 µM
CN1[C@@H]2C[C@@H](OC(=O)[C@H](CO)c3ccccc3)C[C@H]1[C@@H]1O[C@@H]12	> 100 µM
N#Cc1c(Cl)cc(Cl)n2c1nc1ccccc12	13.5 µM
CC1=C(O)C(=O)C=C2C1=CC=C1[C@@]2(C)CC[C@@]2(C)[C@@H]3C[C@](C)(C(=O)O)CC[C@]3(C)CC[C@]12C	0.151 µM
COc1nc2nccnc2c(=O)n1C	> 10 µM
CCOC(=O)NC(Nc1cccc(C(F)(F)F)c1)(C(F)(F)F)C(F)(F)F	> 100 µM
COc1ccc2cc(C(C)C(=O)N3CCOC3=O)ccc2c1 (stereo not given)	> 100 µM
